Laboratory results: patent US11685746B2, “Heteroaryl compounds for treating Huntington's disease” (PTC THERAPEUTICS, INC., priority 2018, dated 2023)

What follows are compounds tested on Endogenous Huntingtin Protein (assay: Endogenous Huntingtin Protein Assay (MSD plates, MW1 or MAB2166 capture antibody)). Conditions: Table 1.
Type: cell-based
In short: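 Endogenous huntingtin was captured overnight at 4° C on wells coated with 1 μg/mL MW1 (polyglutamine-specific) or MAB2166. Detection used rabbit #5656S and then goat anti-rabbit SULFO-TAG, both at 0.25 μg/mL and 1 h at room temperature. Plates were imaged on the MSD system in read buffer T.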

SMILES	IC50 [nM]
CN1CCC2(CC1)CN(c1nc3sc(-c4ncc(-c5cn[nH]c5)cc4O)nc3s1)C2 [Compound 196, 2-[5-(7-methyl-2,7-diazaspiro[3.5]nonan-2-yl)[1,3]thiazolo[5,4-d][1,3]thiazol-2-yl]-5-(1H-pyrazol-4-yl)pyridin-3-ol]	≤ 100
Cc1[nH]ncc1-c1cnc(-c2nc3sc(N(C)[C@H]4C[C@]5(C)CC[C@](C)(C4)N5)nc3s2)cn1 [Compound 86, N-[(1R,3s,5S)-1,5-dimethyl-8-azabicyclo[3.2.1]octan-3-yl]-N-methyl-5-[5-(5-methyl-1H-pyrazol-4-yl)pyrazin-2-yl][1,3]thiazolo[5,4-d][1,3]thiazol-2-amine]	≤ 100
CC1CC(N(C)c2nc3sc(-c4ccc(-c5cn[nH]c5)c5nc[nH]c45)nc3s2)CCN1C (stereo not shown) [Compound 112, N-(1,2-dimethylpiperidin-4-yl)-N-methyl-5-[4-(1H-pyrazol-4-yl)-1H-benzimidazol-7-yl][1,3]thiazolo[5,4-d][1,3]thiazol-2-amine]	≤ 100
CN1CCC2(CC1)CN(c1nc3sc(-c4ncc(-c5cn[nH]c5)c5cc[nH]c45)nc3s1)C2 [Compound 138, 7-[5-(7-methyl-2,7-diazaspiro[3.5]nonan-2-yl)[1,3]thiazolo[5,4-d][1,3]thiazol-2-yl]-4-(1H-pyrazol-4-yl)-1H-pyrrolo[2,3-c]pyridine]	≤ 100
CN(c1nc2sc(-c3ccc(Br)c4cn[nH]c34)nc2s1)[C@H]1C[C@]2(C)CC[C@](C)(C1)N2 [Compound 111, 5-(4-bromo-1H-indazol-7-yl)-N-[(1R,3s,5S)-1,5-dimethyl-8-azabicyclo[3.2.1]octan-3-yl]-N-methyl[1,3]thiazolo[5,4-d][1,3]thiazol-2-amine]	≤ 100
CN(c1nn2cc(-c3ccc(-c4cn[nH]c4)cc3O)nc2s1)C1CC(C)(C)NC(C)(C)C1 [Compound 17, 2-{2-[methyl(2,2,6,6-tetramethylpiperidin-4-yl)amino]imidazo[2,1-b][1,3,4]thiadiazol-6-yl}-5-(1H-pyrazol-4-yl)phenol]	500 to 1000
Cn1cc2cc(-c3cn4nc(C5CCNCC5)sc4n3)cc(C#N)c2n1 [Compound 32, 2-methyl-5-[2-(piperidin-4-yl)imidazo[2,1-b][1,3,4]thiadiazol-6-yl]-2H-indazole-7-carbonitrile]	100 to 500
COc1cc(-c2nc3sc(C4CCNCC4)nc3s2)cc2cn(C)nc12 [Compound 26, 7-methoxy-2-methyl-5-[5-(piperidin-4-yl)[1,3]thiazolo[5,4-d][1,3]thiazol-2-yl]-2H-indazole]	≤ 100
Cc1cn2cc(-c3nn4cc(C5CCNCC5)nc4s3)cc(C#N)c2n1 [Compound 29, 2-methyl-6-[6-(piperidin-4-yl)imidazo[2,1-b][1,3,4]thiadiazol-2-yl]imidazo[1,2-a]pyridine-8-carbonitrile]	100 to 500
C[C@@H]1C[C@@H](Oc2nc3sc(-c4ncc(-c5cn[nH]c5)c5cc[nH]c45)nc3s2)CCN1 [Compound 76, 7-(5-{[(2R,4S)-2-methylpiperidin-4-yl]oxy}[1,3]thiazolo[5,4-d][1,3]thiazol-2-yl)-4-(1H-pyrazol-4-yl)-1H-pyrrolo[2,3-c]pyridine]	≤ 100
CN(c1nc2sc(-c3cnc(-n4cccn4)cn3)nc2s1)C1CC(C)(C)NC(C)(C)C1 [Compound 105, N-methyl-5-[5-(1H-pyrazol-1-yl)pyrazin-2-yl]-N-(2,2,6,6-tetramethylpiperidin-4-yl)[1,3]thiazolo[5,4-d][1,3]thiazol-2-amine]	500 to 1000
CCN1CCC(N(C)c2nc3sc(-c4ncc(-c5cn[nH]c5)c5cc[nH]c45)nc3s2)CC1 [Compound 122, N-(1-ethylpiperidin-4-yl)-N-methyl-5-[4-(1H-pyrazol-4-yl)-1H-pyrrolo[2,3-c]pyridin-7-yl][1,3]thiazolo[5,4-d][1,3]thiazol-2-amine]	≤ 100
CC1CC(N(C)c2nc3sc(-n4cnc(-c5cn[nH]c5)cc4=O)nc3s2)CCN1C (stereo not shown) [Compound 131, 3-{5-[(1,2-dimethylpiperidin-4-yl)(methyl)amino][1,3]thiazolo[5,4-d][1,3]thiazol-2-yl}-6-(1H-pyrazol-4-yl)pyrimidin-4(3H)-one]	100 to 500
CCN1[C@@H]2CC[C@H]1C[C@H](N(C)c1nc3sc(-n4ccc(-c5cn[nH]c5)cc4=O)nc3s1)C2 [Compound 166, 1-(5-{[(1R,3s,5S)-8-ethyl-8-azabicyclo[3.2.1]octan-3-yl](methyl)amino}[1,3]thiazolo[5,4-d][1,3]thiazol-2-yl)-4-(1H-pyrazol-4-yl)pyridin-2(1H)-one]	≤ 100
Cc1cc(-c2cnc(-c3nc4sc(N(C)C5CCNCC5)nc4s3)c(O)c2)cnn1 [Compound 224, 2-{5-[methyl(piperidin-4-yl)amino][1,3]thiazolo[5,4-d][1,3]thiazol-2-yl}-5-(6-methylpyridazin-4-yl)pyridin-3-ol]	≤ 100
CC1CC(N(C)c2nc3sc(-c4ncc(-c5cn[nH]c5)c5cc[nH]c45)nc3s2)CCN1C (stereo not shown) [Compound 152, N-(1,2-dimethylpiperidin-4-yl)-N-methyl-5-[4-(1H-pyrazol-4-yl)-1H-pyrrolo[2,3-c]pyridin-7-yl][1,3]thiazolo[5,4-d][1,3]thiazol-2-amine]	≤ 100

SMILES	IC50 [nM]
CN(c1nc2sc(-n3ccc(-c4cn[nH]c4)cc3=O)nc2s1)C1CC(C)(C)NC(C)(C)C1 [Compound 181, 1-{5-[methyl(2,2,6,6-tetramethylpiperidin-4-yl)amino][1,3]thiazolo[5,4-d][1,3]thiazol-2-yl}-4-(1H-pyrazol-4-yl)pyridin-2(1H)-one]	≤ 100
C[C@@H]1C[C@@H](N(C)c2nc3sc(-c4cnc(-c5cn[nH]c5)cn4)nc3s2)CCN1 [Compound 93, N-methyl-N-[(2R,4S)-2-methylpiperidin-4-yl]-5-[5-(1H-pyrazol-4-yl)pyrazin-2-yl][1,3]thiazolo[5,4-d][1,3]thiazol-2-amine]	≤ 100
C[C@H]1C[C@H](Oc2nc3sc(-c4ncc(-c5nnn(C)n5)c5cc[nH]c45)nc3s2)CCN1 [Compound 81, 7-(5-{[(2S,4R)-2-methylpiperidin-4-yl]oxy}[1,3]thiazolo[5,4-d][1,3]thiazol-2-yl)-4-(2-methyl-2H-tetrazol-5-yl)-1H-pyrrolo[2,3-c]pyridine]	≤ 100
Cn1cc2cc(-c3nc4sc(C5CCNCC5)nc4s3)cc(C#N)c2n1 [Compound 15, 2-methyl-5-[5-(piperidin-4-yl)[1,3]thiazolo[5,4-d][1,3]thiazol-2-yl]-2H-indazole-7-carbonitrile]	≤ 100
Cn1ccc(-c2ccc(-c3nc4sc(OC5CC(C)(C)NC(C)(C)C5)nc4s3)c(O)c2)cc1=O [Compound 38, 4-(3-hydroxy-4-{5-[(2,2,6,6-tetramethylpiperidin-4-yl)oxy][1,3]thiazolo[5,4-d][1,3]thiazol-2-yl}phenyl)-1-methylpyridin-2(1H)-one]	100 to 500
CN(c1nc2sc(-n3ccc(-c4cn[nH]c4)cc3=O)nc2s1)[C@H]1CCCNC1 [Compound 169, 1-(5-{methyl[(3S)-piperidin-3-yl]amino}[1,3]thiazolo[5,4-d][1,3]thiazol-2-yl)-4-(1H-pyrazol-4-yl)pyridin-2(1H)-one]	≤ 100
[2H]C([2H])([2H])n1cc(-c2cnc(-c3nc4sc(N(C)C5CCNCC5)nc4s3)c(O)c2)cn1 [Compound 51, 2-{5-[methyl(piperidin-4-yl)amino][1,3]thiazolo[5,4-d][1,3]thiazol-2-yl}-5-[1-(^2H3)methyl-1H-pyrazol-4-yl]pyridin-3-ol]	≤ 100
Oc1cc(-c2cn[nH]c2)cnc1-c1nc2sc(N3CC4(CC5CCC(C4)N5)C3)nc2s1 [Compound 197, 5-(1H-pyrazol-4-yl)-2-[5-(spiro[8-azabicyclo[3.2.1]octane-3,3′-azetidin]-1′-yl)[1,3]thiazolo[5,4-d][1,3]thiazol-2-yl]pyridin-3-ol]	1000 to 3000
Cc1cnn(-c2cnc(-c3nc4sc(N(C)C5CCNCC5)nc4s3)c(O)c2)c1 [Compound 63, 5-(4-methylpyrazol-1-yl)-2-[5-[methyl(4-piperidyl)amino]thiazolo[5,4-d]thiazol-2-yl]pyridin-3-ol]	3000 to 9000
CN(c1nc2sc(-c3ccc(-c4cn[nH]c4)nc3)nc2s1)C1CC(C)(C)NC(C)(C)C1 [Compound 135, N-methyl-5-[6-(1H-pyrazol-4-yl)pyridin-3-yl]-N-(2,2,6,6-tetramethylpiperidin-4-yl)[1,3]thiazolo[5,4-d][1,3]thiazol-2-amine]	100 to 500
CN(c1nc2sc(-c3ccc(-c4cn[nH]c4)cc3)nc2s1)[C@@H]1C[C@H]2CC[C@@H](C1)N2 [Compound 141, N-[(1R,3s,5S)-8-azabicyclo[3.2.1]octan-3-yl]-N-methyl-5-[4-(1H-pyrazol-4-yl)phenyl][1,3]thiazolo[5,4-d][1,3]thiazol-2-amine]	≤ 100
CN(c1nc2sc(-c3nccc4cc[nH]c34)nc2s1)[C@@H]1C[C@H]2CC[C@@H](C1)N2 [Compound 160, N-[(1R,3s,5S)-8-azabicyclo[3.2.1]octan-3-yl]-N-methyl-5-(1H-pyrrolo[2,3-c]pyridin-7-yl)[1,3]thiazolo[5,4-d][1,3]thiazol-2-amine]	100 to 500
CN(c1nc2sc(-c3cnc(-c4cn[nH]c4)nc3)nc2s1)[C@@H]1C[C@H]2CC[C@@H](C1)N2 [Compound 175, N-[(1R,3s,5S)-8-azabicyclo[3.2.1]octan-3-yl]-N-methyl-5-[2-(1H-pyrazol-4-yl)pyrimidin-5-yl][1,3]thiazolo[5,4-d][1,3]thiazol-2-amine]	≤ 100
CN(c1nc2sc(-c3ccc(-c4cn[nH]c4)cc3O)nc2s1)C1CC(C)(C)NC(C)(C)C1 [Compound 1, 2-{5-[methyl(2,2,6,6-tetramethylpiperidin-4-yl)amino][1,3]thiazolo[5,4-d][1,3]thiazol-2-yl}-5-(1H-pyrazol-4-yl)phenol]	≤ 100
CN(c1nc2sc(-n3cnc(-c4cn[nH]c4)cc3=O)nc2s1)[C@@H]1C[C@H]2CC[C@@H](C1)N2 [Compound 172, 3-(5-{[(1R,3s,5S)-8-azabicyclo[3.2.1]octan-3-yl](methyl)amino}[1,3]thiazolo[5,4-d][1,3]thiazol-2-yl)-6-(1H-pyrazol-4-yl)pyrimidin-4(3H)-one]	≤ 100
